From publication PMC2903443 (Journal of medicinal chemistry, 2010)
Like-named read-outs stand apart in the source and are kept apart here.

What was measured:
mtIMPDH [1] = biological target: T1, mtIMPDH (Mycobacterium tuberculosis, UniProt P9WKI7); assay: biochemical; format: biochemical
hIMPDH1 = hIMPDH1 (Homo sapiens, UniProt P20839); assay: IMPDH inhibition assay; format: biochemical; conditions: hIMPDHs, isoform not specified; relative to compound 6
mtIMPDH [2] = biological target: T1, mtIMPDH; format: biochemical
mtIMPDH [3] = biological target: T1, mtIMPDH; assay: biochemical
human-type 2 IMPDH = conditions: cited from earlier work
human-type 1 IMPDH = conditions: cited from earlier work

T1 sequence (P9WKI7 whole entry, looked up, canonical isoform): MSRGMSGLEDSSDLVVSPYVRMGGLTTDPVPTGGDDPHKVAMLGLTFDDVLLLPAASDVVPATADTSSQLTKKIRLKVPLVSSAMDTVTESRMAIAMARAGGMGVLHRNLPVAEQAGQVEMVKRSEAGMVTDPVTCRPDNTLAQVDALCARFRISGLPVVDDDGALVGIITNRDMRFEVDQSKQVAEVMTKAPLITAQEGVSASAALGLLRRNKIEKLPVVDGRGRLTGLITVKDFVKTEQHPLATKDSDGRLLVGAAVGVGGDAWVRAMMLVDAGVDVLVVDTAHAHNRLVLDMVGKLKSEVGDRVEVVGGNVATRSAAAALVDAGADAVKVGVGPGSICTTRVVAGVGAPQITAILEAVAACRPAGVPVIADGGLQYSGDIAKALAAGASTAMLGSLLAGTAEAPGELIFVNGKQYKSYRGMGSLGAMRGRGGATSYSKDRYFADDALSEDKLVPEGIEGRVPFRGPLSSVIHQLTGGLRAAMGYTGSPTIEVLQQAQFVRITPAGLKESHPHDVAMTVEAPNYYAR
Chain of hIMPDH1 (P20839 whole entry, canonical isoform): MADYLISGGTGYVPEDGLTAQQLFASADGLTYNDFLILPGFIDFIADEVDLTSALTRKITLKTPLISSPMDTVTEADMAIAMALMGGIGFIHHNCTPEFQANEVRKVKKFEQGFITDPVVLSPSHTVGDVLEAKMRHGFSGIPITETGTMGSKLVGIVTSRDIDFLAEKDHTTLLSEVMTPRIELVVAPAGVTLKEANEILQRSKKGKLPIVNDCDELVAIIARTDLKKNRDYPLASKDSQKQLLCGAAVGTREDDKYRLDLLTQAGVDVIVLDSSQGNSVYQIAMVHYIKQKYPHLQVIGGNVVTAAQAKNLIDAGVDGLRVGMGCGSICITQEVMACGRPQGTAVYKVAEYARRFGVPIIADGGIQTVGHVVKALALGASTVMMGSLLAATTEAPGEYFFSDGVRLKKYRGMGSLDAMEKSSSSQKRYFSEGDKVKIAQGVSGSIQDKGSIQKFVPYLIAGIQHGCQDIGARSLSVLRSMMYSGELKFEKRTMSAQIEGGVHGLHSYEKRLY

In the case of COc1c(C)c2c(c(O)c1C/C=C(\C)CCC(=O)O)C(=O)OC2 [Compound 1, Mycophenolic acid], the Hill-slope (mtIMPDH [1]; fit of Ki^app against mtIMPDH) is reported as 1.5 and the “Ki^app value against mtIMPDH with detergent” value (mtIMPDH [1]; reaction buffer containing 0.1% Trition X-100, compared with buffer without) is reported as “not affected”.

COc1c(C)c2c(c(O)c1CCOP(=O)(O)CP(=O)(O)OC[C@H]1O[C@@H](n3cnc4c(N)nc(-c5ccccc5)nc43)[C@H](O)[C@@H]1O)C(=O)OC2 [Compound 3b] gave a Ki (mtIMPDH [1]) greater than 100 µM.

With COc1c(C)c2c(c(O)c1C/C=C(\C)COP(=O)(O)CP(=O)(O)OC[C@H]1O[C@@H](n3cnc4c(N)ncnc43)[C@H](O)[C@@H]1O)C(=O)OC2 [Compound 4] the Ki (mtIMPDH [1]) was greater than 100 µM.

Work on COc1c(C)c2c(c(O)c1CCNS(=O)(=O)CS(=O)(=O)NC[C@H]1O[C@@H](n3cnc4c(N)nc(-c5ccccc5)nc43)[C@H](O)[C@@H]1O)C(=O)OC2 [Compound 5b] yielded a Ki (mtIMPDH [1]) greater than 100 µM.

Compound C#Cc1nc(N)c2ncn([C@@H]3O[C@H](CNS(=O)(=O)CS(=O)(=O)NCCc4c(O)c5c(c(C)c4OC)COC5=O)[C@@H](O)[C@H]3O)c2n1 [Compound 5c] has a Ki (mtIMPDH [1]) greater than 100 µM.

In the case of CCc1nc(N)c2ncn([C@@H]3O[C@H](CNS(=O)(=O)CS(=O)(=O)NCCc4c(O)c5c(c(C)c4OC)COC5=O)[C@@H](O)[C@H]3O)c2n1 [Compound 5d], the Ki (mtIMPDH [1]) is reported as greater than 100 µM.

Work on COc1c(C)c2c(c(O)c1CCNCc1cn(C[C@H]3O[C@@H](n4cnc5c(N)ncnc54)[C@H](O)[C@@H]3O)nn1)C(=O)OC2 [Compound 6, 6-(2-(((1-(5′-Deoxy-adenosin-5′-yl)-1H-1,2,3-triazol-4-yl)methyl)amino)ethyl)-7-hydroxy-5-methoxy-4-methylisobenzofuran-1(3H)-one] yielded a Ki (mtIMPDH [1]) greater than 100 µM.

With COc1c(C)c2c(c(O)c1CCn1cc(COC[C@H]3O[C@@H](n4cnc5c(N)ncnc54)[C@H](O)[C@@H]3O)nn1)C(=O)OC2 [Compound 8, 6-(2-(4-(Adenosin-5′-yl)methyl-1H-1,2,3-triazol-1-yl)ethyl)-7-hydroxy-5-methoxy-4-methylisobenzofuran-1(3H)-one] the “fold more potent than compound 6” value (hIMPDH1) was 10 fold and the Ki (mtIMPDH [1]) was greater than 100 µM.

With COc1c(C)c2c(c(O)c1C/C=C(\C)Cn1cc(COC[C@H]3O[C@@H](n4cnc5c(N)ncnc54)[C@H](O)[C@@H]3O)nn1)C(=O)OC2 [Compound 9, 6-((E)-4-(4-(Adenosin-5′-yl)methyl-1H-1,2,3-triazol-1-yl)-3-methylbut-2-en-1-yl)-7-hydroxy-5-methoxy-4-methylisobenzofuran-1(3H)-one] the “activity against mtIMPDH (in words)” value (mtIMPDH [1]) was “significant inhibition”, the “uncompetitive Kiu vs. IMP” value (mtIMPDH [2]; IMP varied 1.4 μM to 1 mM, NAD fixed 0.5 mM, mtIMPDH […]) was 2.2 ± 0.1 µM and the “uncompetitive Kiu vs. NAD” value (mtIMPDH [2]; NAD varied 94 μM to 3 mM, IMP fixed 100 μM, mtIMPDH […]) was 1.5 ± 0.1 µM. For the same compound, the mode of inhibition (mtIMPDH [2]; with respect to both NAD and IMP) was “uncompetitive”.

For NC(=O)c1ccc[n+]([C@@H]2O[C@H](COP(=O)([O-])OP(=O)(O)OC[C@H]3O[C@@H](n4cnc5c(N)ncnc54)[C@H](O)[C@@H]3O)[C@@H](O)[C@H]2O)c1 [NAD, nicotinamide adenine dinucleotide], the Ki (mtIMPDH [3]) is listed as 5000 ± 600 µM, the Km (human-type 2 IMPDH; read-out: KM (NAD), ref [27]) is listed as 6 ± 1 µM and the Ki (human-type 2 IMPDH; read-out: Ki (NAD), ref [27]) is listed as 590 ± 20 µM. For the same compound, the Km (human-type 1 IMPDH; read-out: KM (NAD), ref [28]) was 70 ± 10 µM and the Ki (human-type 1 IMPDH; read-out: Ki (NAD), ref [28]) was 2000 ± 600 µM.
